Data reported in patent US20240390369A1, “METHODS FOR DETERMINING RESPONSIVENESS TO TYK2 INHIBITORS” (Bristol-Myers Squibb Company, priority 2021, published 2024).

Test system: patients with psoriatic arthritis
Test: Phase 2 trial in psoriatic arthritis: PASI75 response at week 16
Format: in vivo, human
Conditions: for Interaction Term for PASI75 response (ratio of odds ratios): week 16
Method: In a double-blind Phase 2 trial, 203 patients with psoriatic arthritis were randomized into three groups: deucravacitinib 6 mg once daily (N=70), deucravacitinib 12 mg once daily (N=67), or placebo (N=66). All subjects had active psoriatic arthritis according to the Classification Criteria for Psoriatic Arthritis (CASPAR); for active disease, these criteria required ≥3 tender joint count, ≥3 swollen joint count, and a C-reactive protein level above 3 mg/L. Other inclusion criteria included the following: presence of at least one plaque psoriasis lesion, and prior treatment failure with a non-biologic disease modifying anti-rheumatic drug, a non-steroidal anti-inflammatory drug, or a steroid. With respect to treatment history, approximately 70% of subjects had not received prior treatment with a biologic and were biologic naïve, while up to 30% of subjects had failed or had been intolerant to one TNF-inhibitor (TNF=Tumor necrosis factor, also known as TNFα). Randomization was stratified by prior TNF-inhibitor use (experienced/naïve) and body weight (<90 kg and ≥90 kg).
Clinical measures included the Psoriasis […] (PASI) score for skin psoriasis, American College of Rheumatology 20 (ACR20) response, Psoriatic Arthritis Disease Activity Score (PASDAS), Health Assessment Questionnaire-Disability Index (HAQ-DI), and Disease Activity Score 28 CRP (DAS28). To evaluate the predictive value of different protein measurements for the clinical response to deucravacitinib, baseline protein concentrations for responders and non-responders, as defined by ACR20 or PASI75 at week 16, were compared for each arm (placebo, 6 mg deucravacitinib once-daily, and 12 mg deucravacitinib once-daily).
In addition, a logistic regression model was fit, to determine whether baseline disease score (dichotomized by the median baseline score, into baseline score high and baseline score low groups) was associated with response status. The model generated an odds ratio for each dosed arm versus placebo, in baseline score high and baseline score low groups.
Boxplots for baseline protein level by response were generated with a horizontal line indicating the median protein level at baseline. For each treatment arm, a two-sample t-test was performed to test whether mean baseline serum protein level was different in responders versus non-responders. A Wilcoxon rank sum test (Mann-Whitney U test) was also performed to evaluate the difference in median serum protein level between responders and non-responders. Further, barplots of ACR20 and PASI75 response rate at week 16 for each treatment arm were generated for all subjects (protein level high and protein level low subjects, dichotomized according to median baseline level). Line plots of ACR20 and PASI75 response rate over time for each treatment arm were generated for protein level high and protein level low groups. Logistic regression models were also fit to evaluate associations between baseline protein levels and clinical outcome.
For certain analyses described herein, patients were dichotomized by median values (e.g., of the proteins listed above or other measures) into “high” and “low” groups, such that the high group had values above the median and the low group had values less than or equal to the median.
In addition, logistic regression models were fit for response measures ACR20 and PASI75, to generate the odds ratio of each of the deucravacitinib treatment arms versus placebo, in BD2-high and BD2-low groups. The following logistic regression models were used: • For ACR20 response status: ACR20 (Y/N)=treatment arm+BD2 group+treatment arm*BD2 group+TNF-inhibitor use+baseline weight (continuous). • For PASI75 response status: PASI75 (Y/N)=treatment arm+BD2 group+treatment arm*BD2 group+TNF-inhibitor use+baseline weight (continuous). […]

[1] = 12 mg QD, Above median baseline CRP level
[2] = 12 mg QD, Below median baseline CRP level

`[2H]C([2H])([2H])NC(=O)c1nnc(NC(=O)C2CC2)cc1Nc1cccc(-c2ncn(C)n2)c1OC` [deucravacitinib, 6-(cyclopropanecarboxamido)-4-((2-methoxy-3-(1-methyl-1H-1,2,4-triazol-3-yl)phenyl)amino)-N-(methyl-d3)pyridazine-3-carboxamide] showed a Number of subjects (6 mg QD, PASI75 responder, BD2-high-PASI-low) of 4, a Number of subjects (6 mg QD, PASI75 responder, BD2-low-PASI-high) of 2 and a Number of subjects (6 mg QD, PASI75 responder, BD2-low-PASI-low) of 5. It also gave a Number of subjects (6 mg QD, PASI75 responder, IL-17A-high-PASI-high) of 12, a Number of subjects (6 mg QD, PASI75 responder, IL-17A-high-PASI-low) of 7 and a Number of subjects (6 mg QD, PASI75 responder, IL-17A-low-PASI-high) of 4. For the same compound, the Number of subjects (6 mg QD, PASI75 responder, IL-17A-low-PASI-low) was 2, the Number of subjects (6 mg QD, PASI75 responder, IL-19-high-PASI-high) was 13 and the Number of subjects (6 mg QD, PASI75 responder, IL-19-high-PASI-low) was 6. The Number of subjects (6 mg QD, PASI75 responder, IL-19-low-PASI-high) was 3, the Number of subjects (6 mg QD, PASI75 responder, IL-19-low-PASI-low) was 3 and the “Interaction Term for PASI75 response (ratio of odds ratios)” value (from here on “Interaction Term … (ratio of odds ratios)”) (12 mg QD vs placebo: BD2 high versus BD2 low) was 14.233. For the same compound, the “Interaction Term: treatment arm*CRP group, PASI75” value (12 mg QD vs placebo: CRP high versus CRP low) was 2.63, the “Interaction Term: treatment arm*CRP group, PASI75” value (12 mg QD vs placebo: CRP-high versus CRP-low, adjusted for baseline PASI score) was 3.18 and the “Interaction Term: treatment arm*IL-17A group, PASI75” value (12 mg QD vs placebo: IL-17A high versus IL-17A low, adjusted for baseline PASI score) was 13.222. The “Interaction Term … (ratio of odds ratios)” value (12 mg QD vs placebo: IL-17A high versus IL-17A low) was 12.089, the “Interaction Term … (ratio of odds ratios)” value (12 mg QD vs placebo: baseline PASI high versus PASI low) was 6.42 and the “Number of subjects, PASI75 Non-responder at week 16” value [1] was 7. The “Number of subjects, PASI75 Responder at week 16” value [1] was 18, the “Number of subjects, PASI75 Non-responder at week 16” value [2] was 14 and the “Number of subjects, PASI75 Responder at week 16” value [2] was 13. The “Number of subjects, PASI75 Non-responder” value (12 mg QD, CRP-high-PASI-high) was 4, the “Number of subjects, PASI75 Responder” value (12 mg QD, CRP-high-PASI-high) was 10 and the “Number of subjects, PASI75 Non-responder” value (12 mg QD, CRP-high-PASI-low) was 3. For the same compound, the “Number of subjects, PASI75 Responder” value (12 mg QD, CRP-high-PASI-low) was 8, the “Number of subjects, PASI75 Non-responder” value (12 mg QD, CRP-low-PASI-high) was 2 and the “Number of subjects, PASI75 Responder” value (12 mg QD, CRP-low-PASI-high) was 10. The “Number of subjects, PASI75 Non-responder” value (12 mg QD, CRP-low-PASI-low) was 12, the “Number of subjects, PASI75 Responder” value (12 mg QD, CRP-low-PASI-low) was 3 and the Number of subjects (12 mg QD, PASI75 non-responder at week 16, above baseline PASI median 6.6) was 6. The Number of subjects (12 mg QD, PASI75 non-responder at week 16, above median baseline BD2 level) was 11, the Number of subjects (12 mg QD, PASI75 non-responder at week 16, above median baseline IL-17A level) was 8 and the Number of subjects (12 mg QD, PASI75 non-responder at week 16, above median baseline IL-19 level) was 6. It also gave a Number of subjects (12 mg QD, PASI75 non-responder at week 16, below baseline PASI median 6.6) of 15, a Number of subjects (12 mg QD, PASI75 non-responder at week 16, below median baseline BD2 level) of 13 and a Number of subjects (12 mg QD, PASI75 non-responder at week 16, below median baseline IL-17A level) of 13. The Number of subjects (12 mg QD, PASI75 non-responder at week 16, below median baseline IL-19 level) was 14, the Number of subjects (12 mg QD, PASI75 non-responder, BD2-high-PASI-high) was 5 and the Number of subjects (12 mg QD, PASI75 non-responder, BD2-high-PASI-low) was 5. The Number of subjects (12 mg QD, PASI75 non-responder, BD2-low-PASI-high) was 1, the Number of subjects (12 mg QD, PASI75 non-responder, BD2-low-PASI-low) was 10 and the Number of subjects (12 mg QD, PASI75 non-responder, IL-17A-high-PASI-high) was 5. For the same compound, the Number of subjects (12 mg QD, PASI75 non-responder, IL-17A-high-PASI-low) was 3, the Number of subjects (12 mg QD, PASI75 non-responder, IL-17A-low-PASI-high) was 1 and the Number of subjects (12 mg QD, PASI75 non-responder, IL-17A-low-PASI-low) was 12. For the same compound, the Number of subjects (12 mg QD, PASI75 non-responder, IL-19-high-PASI-high) was 3, the Number of subjects (12 mg QD, PASI75 non-responder, IL-19-high-PASI-low) was 3 and the Number of subjects (12 mg QD, PASI75 non-responder, IL-19-low-PASI-high) was 2. It also gave a Number of subjects (12 mg QD, PASI75 non-responder, IL-19-low-PASI-low) of 12, a Number of subjects (12 mg QD, PASI75 responder at week 16, above baseline PASI median 6.6) of 20 and a Number of subjects (12 mg QD, PASI75 responder at week 16, above median baseline BD2 level) of 23. It also gave a Number of subjects (12 mg QD, PASI75 responder at week 16, above median baseline IL-17A level) of 18.
